Drawing on patent US7112685B2, “Labeled resiniferatoxin derivatives” (Ortho-McNeil Pharmaceutical, Inc., priority 2000, dated 2006), this text covers IC50 for three molecules.

The target in the test is T1, hVR1 receptors (Homo sapiens, UniProt Q8NER1).
T1 construct: expressed in transfected cells; host or cells: HEK293 cells (membranes)
Kind of test: [3H] RTX Binding Assay (inhibition of [3H] RTX binding to membranes of HEK293 cells transfected with human VR1). As for the experimental part: Iodinated RTX derivatives of the present invention were tested for their ability to inhibit the binding of [^3H] RTX to hVR1 receptors in a [^3H] RTX Binding Assay.
HEK293 cells were transfected with human VRI vanilloid receptors, as described in U.S. patent application Ser. No. 09/292700 to Dubin, A., et. al, filed on Apr. 15, 1999 (herein incorporated by reference), and washed with Hank's Balanced Salt Solution, dissociated with cell dissocation buffer (Sigma), and then centrifuged at 1000 x g for 5 min. Cell pellets were homogenized in cold 20 mM HEPES buffer, pH 7.4, containing 5.8 mM NaCl, 320 mM sucrose, 2 mM MgCl2, […] and 5 mM KCl and centrifuged at 1000 x g for 15 min. The resultant supernate was then centrifuged at 40,000 x g for 15 min. The pelleted membranes were kept in an −80° C. freezer.
The assay procedure was modified from that described in Szallasi, A. and Blumberg, P. M., “[^3H] Resiniferatoxin binding by the vanilloid receptor: specific-related differences, effect of temperature and sulfhydryl reagents” (Naunyn-Schmiedeberg's Arch. Pharmacol., 1993, 347, 84-91). Briefly, about 120 μg protein/ml from membranes were incubated with indicated concentrations of [^3H] RTX in 0.5 ml of the HEPES buffer (pH 7.4) containing 0.25 mg/mL fat acid-free bovine serum albumin at 37° C. for 60 min. The reaction mixture was then cooled to 4° C., added 0.1 mg α1-acid glycoprotein to each sample and incubated at 4° C. for 15 min. The samples were centrifuged at 18500 x g for 15 min. The tip of the microcentrifuge tube containing the pellet was cut off. Bound radioactivity was quantified by scintillation counting. Non-specific binding was tested in the presence of 200 nM unlabeled RTX.
Membrane Incubation with [^3H] RTX and lodinated RTX Derivatives
Membranes were incubated with [^3H] RTX (0.4 nM) and varying concentrations of iodinated RTX derivatives at 37° C. for 60 min. […] RTX binding.

For orientation: IC50 means the concentration at which inhibition is half-maximal.

The structures appear in SMILES notation. Where two headings read alike, the source gives them in different places.

T1 sequence (Q8NER1 whole entry): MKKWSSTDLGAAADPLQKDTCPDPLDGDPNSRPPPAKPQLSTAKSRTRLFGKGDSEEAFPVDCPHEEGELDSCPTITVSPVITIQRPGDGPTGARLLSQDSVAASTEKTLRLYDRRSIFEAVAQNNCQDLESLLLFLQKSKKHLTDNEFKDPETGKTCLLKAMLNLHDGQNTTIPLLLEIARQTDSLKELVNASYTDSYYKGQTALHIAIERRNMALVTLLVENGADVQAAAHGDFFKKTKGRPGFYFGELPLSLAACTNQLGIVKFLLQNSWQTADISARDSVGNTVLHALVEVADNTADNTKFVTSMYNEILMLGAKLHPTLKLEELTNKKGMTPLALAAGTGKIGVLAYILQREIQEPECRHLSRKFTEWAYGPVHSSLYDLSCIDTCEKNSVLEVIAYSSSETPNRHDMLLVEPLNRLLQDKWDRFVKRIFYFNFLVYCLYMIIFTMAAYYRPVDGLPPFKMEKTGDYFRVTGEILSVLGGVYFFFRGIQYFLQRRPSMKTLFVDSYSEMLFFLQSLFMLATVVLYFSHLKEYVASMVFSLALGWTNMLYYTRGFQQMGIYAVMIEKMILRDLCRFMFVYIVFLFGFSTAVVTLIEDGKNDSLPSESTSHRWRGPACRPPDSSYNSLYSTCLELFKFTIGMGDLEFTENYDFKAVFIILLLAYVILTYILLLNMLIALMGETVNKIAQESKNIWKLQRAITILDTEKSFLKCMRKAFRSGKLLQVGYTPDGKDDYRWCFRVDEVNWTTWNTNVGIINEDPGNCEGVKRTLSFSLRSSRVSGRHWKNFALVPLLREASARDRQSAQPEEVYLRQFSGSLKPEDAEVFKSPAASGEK

On to `C=C(C)[C@]12C[C@@H](C)[C@@]34O[C@](Cc5ccccc5)(O[C@@H]1[C@@H]3C=C(COC(=O)Cc1ccc(O)c(OC)c1)C[C@]1(O)C(=O)C(C)=C[C@@H]41)O2` [RTX, resiniferatoxin], for which the IC50 ([3H] RTX 0.4 nM, 37° C. for 60 min, HEK293 membranes, two experiments, each point in duplicate, read-out: IC50 Value for Binding to a hVR1 Receptor) worked out at 0.09 ± 0.12 nM.
For `C=C(C)C12CC(C)C34OC(Cc5ccccc5)(OC1C3C=C(COC(=O)Cc1cc(OC)c(O)cc1I)CC1(O)C(=O)C(C)=CC14)O2` (stereo not drawn) [Compound 2, 9,13,14-Orthophenylacetylresiniferonyl-20-(3-hydroxy-4-methoxy-6-iodophenylacetate)], the IC50 worked out at 0.22 ± 0.03 nM.
Same read-out and setting: next, `C=C(C)C12CC(C)C34OC(Cc5ccccc5)(OC1C3C=C(COC(=O)Cc1cc(OC)c(OC(C)=O)cc1I)CC1(O)C(=O)C(C)=CC14)O2` (stereo not drawn) [Compound 1, 9,13,14-Orthophenylacetylresiniferonyl-20-(3-acetoxy-4-methoxy-6-Iodophenylacetate)]: 0.31 ± 0.06 nM.
